In US11446264B2, “Memory manipulation via modification of protein kinase C zeta activity” (THE RESEARCH FOUNDATION FOR THE STATE UNIVERSITY OF NEW YORK, priority 2017, dated 2022):

Key:
[1] = test system: hippocampal slices from wild-type mice; test: maintenance of LTP in hippocampal slices from wild-type mice; type: cell-based, mouse; conditions: NSA 10 μM applied 3 h post-tetanization, FIG. 3
Protocol: (§1) Acute mouse hippocampal slices (450 μm) were dissected, bathed in ice-cold dissection buffer, and sliced with a McIlwain tissue slicer in a cold room (4° C.). The dissection buffer contained (in mM): 125 NaCl, 2.5 KCl, 1.25 NaH2PO4, 26 NaHCO3, 11 glucose, 10 MgCl2, and 0.5 CaCl2, and was bubbled with 95% O2/5% CO2 to maintain the pH at 7.4. The slices were immediately transferred into an interface recording chamber (31.5±1° C.). The recording superfusate consisted of (in mM): 118 NaCl, 3.5 KCl, 2.5 CaCl2, 1.3 MgSO4, 1.25 NaH2PO4, 24 NaHCO3, and 15 glucose, bubbled with 95% O2/5% CO2, with a flow rate of 0.5 ml/min. […] Pathway independence was confirmed by the absence of paired-pulse facilitation between the two pathways. The high-frequency stimulation consisted of standard two 100 Hz-1 s tetanic trains, at 25% of spike threshold, spaced 20 s apart, which is optimized to produce a relatively rapid onset of protein synthesis-dependent late-LTP. The maximum slope of the rise of the fEPSP is analyzed on a PC using the WinLTP data acquisition program. Application of NSA (black bar) beginning 3 hr after application of high-frequency stimulation reversed the maintenance of LTP seen during this time period, which is known to require PKC zeta/PKM zeta activity.

[2] = test system: wild-type mice; test: active place avoidance, long-term memory retention, wild-type mice; type: in vivo, mouse; conditions: 5 nmol in 0.5 μl/hippocampus, 1 day after training, FIG. 5
Protocol: (§2) A commercial computer-controlled active place avoidance system was used (Bio-Signal Group, Acton, Mass.). The position of the mouse on a 40 cm diameter circular arena rotating at 1 rpm was determined 30 times per second by video tracking from an overhead camera (Tracker, Bio-Signal Group). All experiments used the ‘Room+Arena−’ task variant that challenges the mouse on the rotating arena to avoid a shock zone that was a stationary 60° sector. A constant current foot-shock (60 Hz, 500 ms) was delivered after entering the shock zone for 500 ms and was repeated each 1500 ms until the mouse left the shock zone. The arena rotation periodically transported the animal into the shock zone, forcing it to actively avoid the location of shock. The shock amplitude was 0.2 or 0.3 mA, which was determined for each animal in the first session to be the minimum that elicited flinch or escape responses.
(§3) A clear wall made from Polyethylene Terephtalate Glycol-modified (PET-G) prevented the animal from jumping off the elevated arena surface. […] Every 33 ms, the software determined the mouse's position, whether it was in the shock zone, and whether to deliver shock. The time series of the tracked positions was analyzed offline (TrackAnalysis, Bio-Signal Group) to extract a number of end point measures. […]

[3] = target: T1, PKC iota/lambda (Homo sapiens, UniProt P41743); test: kinase activity assay ([γ-32P]ATP, e-peptide substrate), PKC iota/lambda; type: biochemical; conditions: at doses up to 10 μM
T1 construct: purchased ProQinase GmbH (Freiburg, Germany)
T1 sequence (P41743 1-596): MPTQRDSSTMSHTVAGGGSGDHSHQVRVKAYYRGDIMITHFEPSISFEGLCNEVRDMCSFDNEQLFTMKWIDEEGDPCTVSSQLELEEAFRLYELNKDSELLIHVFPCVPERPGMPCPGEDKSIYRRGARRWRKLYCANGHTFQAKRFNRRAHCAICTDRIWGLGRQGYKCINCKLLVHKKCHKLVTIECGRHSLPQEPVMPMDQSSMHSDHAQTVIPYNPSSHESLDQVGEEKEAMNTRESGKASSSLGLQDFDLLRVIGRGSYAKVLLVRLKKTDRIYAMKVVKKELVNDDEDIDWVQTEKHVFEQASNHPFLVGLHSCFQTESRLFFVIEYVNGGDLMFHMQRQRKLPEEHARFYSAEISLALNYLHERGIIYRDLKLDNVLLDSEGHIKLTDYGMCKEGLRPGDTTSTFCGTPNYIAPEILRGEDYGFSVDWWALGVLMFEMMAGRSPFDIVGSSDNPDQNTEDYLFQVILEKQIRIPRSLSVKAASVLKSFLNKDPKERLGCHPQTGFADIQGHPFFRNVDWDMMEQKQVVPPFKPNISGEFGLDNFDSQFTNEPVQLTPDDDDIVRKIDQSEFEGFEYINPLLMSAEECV
Protocol: (§4) In separate experiments, PKC zeta and PKM zeta were recombinantly expressed and purified. PKC iota/lambda was purchased from ProQinase GmbH (Freiburg, Germany). The reaction mixture ([…] final volume) contained: 50 mM Tris-HCl (pH 7.4), 10 mM MgCl2, 1 mM DTT, […] e-peptide substrate (ERMRPRKRQGSVRRRV, AnaSpec, Freemont, Calif.), in the presence or absence of phosphatidylserine (5 mg/ml, Avanti Polar Lipids, Alabaster, Ala.), and PKC iota/lambda (184 ng, 0.2 pmol/min per assay) or PKM zeta (4 ng, 0.2 pmolmin-1/assay), in the presence or absence of NSA at concentrations given on the X axis. The reaction, initiated with the addition of […] (final concentration, ˜1-3 μCi [γ-32P]/assay), was for 30 min at 30° C., which is in the linear range for enzyme concentration (data not shown). The reaction was stopped by addition of […] of 100 mM cold ATP and 100 mM EDTA, and 40 ml of the reaction mixture was spotted onto phosphocellulose paper and counted by liquid scintillation. Activity was measured as the difference between counts incorporated in the presence and absence of enzyme. Autonomous kinase activity is defined as activity in the absence of phosphatidylserine. […] Thus, as disclosed herein, administering NSA inhibits activity of PKC zeta and PKM zeta.

[4] = target: T2, PKC zeta (Homo sapiens, UniProt Q05513); test: kinase activity assay ([γ-32P]ATP, e-peptide substrate), PKC zeta; type: biochemical
T2 construct: made in house
T2 sequence (Q05513 1-592): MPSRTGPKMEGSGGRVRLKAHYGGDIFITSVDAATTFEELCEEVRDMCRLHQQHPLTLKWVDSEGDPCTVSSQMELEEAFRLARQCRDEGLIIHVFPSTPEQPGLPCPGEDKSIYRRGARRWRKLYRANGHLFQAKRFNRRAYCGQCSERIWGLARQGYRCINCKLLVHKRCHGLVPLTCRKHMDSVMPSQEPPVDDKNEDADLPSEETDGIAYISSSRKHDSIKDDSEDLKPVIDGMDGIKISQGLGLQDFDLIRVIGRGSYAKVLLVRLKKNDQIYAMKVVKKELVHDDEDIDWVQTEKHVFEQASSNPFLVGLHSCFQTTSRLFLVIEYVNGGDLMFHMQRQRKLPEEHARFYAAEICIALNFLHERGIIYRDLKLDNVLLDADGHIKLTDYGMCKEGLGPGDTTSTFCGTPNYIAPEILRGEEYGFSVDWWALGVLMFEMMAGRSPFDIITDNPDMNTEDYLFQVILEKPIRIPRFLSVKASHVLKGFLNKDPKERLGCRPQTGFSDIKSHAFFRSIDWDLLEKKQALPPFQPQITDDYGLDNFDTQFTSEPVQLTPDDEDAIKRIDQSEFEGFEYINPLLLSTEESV
Protocol: as §4

[5] = test system: hippocampal slices from mice lacking expression of PKC zeta/PKM zeta; test: maintenance of LTP in hippocampal slices from PKC zeta/PKM zeta null mice; type: cell-based, mouse; conditions: FIG. 4
Protocol: as §1, with “activity. […]” for “activity.”

[6] = test system: PKCζ-null mice; test: active place avoidance, long-term memory retention, PKC zeta/PKM zeta null mice; type: in vivo, mouse; conditions: 5 nmol in 0.5 μl/hippocampus, 1 day after training, FIG. 5
Protocol: as §2, §3

[7] = test system: wild-type mice; test: active place avoidance, retraining and retesting in a different context after NSA; type: in vivo, mouse; conditions: n's=5, FIG. 6
Description: Above, representative diagram of training protocol, similar to that described for FIG. 5. After training, memory erasure by NSA injection in hippocampus, and retention testing in one context, mice are immediately retrained and retested in a different context. NSA on relearning ([…] with repeated measurements). There is a significant interaction between the effects of treatment (control, NSA) and trials (pretraining, training, retention in two environments) (F5,40=4.41, P=0.0027). The main effect of treatment is F1,8=3.34, p=0.10. […] Thus, the effects NSA administration has on inhibiting memory are not due to generalized, permanent damage to neural substrates responsible for learning and memory.

Compound: O=S(=O)(O)c1cc(O)c2c(S(=O)(=O)O)cc(S(=O)(=O)O)cc2c1 [NSA, 1-naphthol-3,6,8-trisulphonic acid]
- maintenance of LTP (fEPSP slope) [1]: reverses maintenance of LTP
- retention of avoidance (time to first enter the shock zone) [2]: inhibited retention of avoidance
- effect on PKC iota/lambda kinase activity [3]: without effect
- IC50 ([4]; FIG. 2, mean±SEM, ns=3, 30 min at 30° C., read-out: IC50 as a negative modulator of PKC zeta/PKM zeta activity): 100 to 200 nM
- decrease of PKC zeta/PKM zeta activity ([4]; FIG. 2, extent of decrease): approximately 50%
- maintenance of LTP (fEPSP slope) [5]: no effect on maintenance of LTP
- retention of avoidance (time to first enter the shock zone) [6]: did not affect retention testing
- memory retention of the pre-injection training ([7]; NSA injection in hippocampus): disrupts memory retention
- memory retention of the post-injection training (different context) ([7]; retrained and retested after NSA injection in hippocampus): no effect
